Data as given in patent publication US9061004B2, “15-PGDH in colon cancer” (Case Western Reserve University, priority 2009, dated 2015).

Assays:
[1] = system: AOM induced colon tumors; assay: AOM induced colon tumor development in FVB mice on dietary celecoxib; format: in vivo, mouse; conditions: for AOM induced colon tumors per mouse / AOM induced large colon tumors (>1 mm) per mouse: mean ± SEM
Excerpt: To conduct this study FVB mice were selected, chosen because at baseline this mouse strain is sensitive to AOM induced colon tumors (Nambiar, P. R. et al., (2003) Int J Oncol 22, 145-50). In 15-PGDH wild-type FVB mice, AOM induced 2.3±0.4 tumors per mouse colon (FIG. 1A, 1C), which on histology review were all adenomatous lesions. As in human trials, administering dietary celecoxib protected wild-type FVB mice against colon tumor development, reducing adenoma development to 0.7±0.3 tumors per mouse (P=0.003) (FIG. 1A, 1C). Furthermore, while nearly all tumors arising in control mice exceeded 1 mm in size, tumors in celecoxib treated mice rarely reached this size (2.2±0.4 versus 0.3±0.1, P<0.0001) (FIG. 1B).
Dietary celecoxib could thus near completely protect wild-type FVB mice from developing colon tumors. […] Thus, celecoxib treated 15-PGDH null mice developed 5.5-fold more colon adenomas than did their celecoxib treated 15-PGDH wild-type littermates (3.9±0.8 versus 0.7±0.3, P=0.0001) (FIG. 1A, 1C). Moreover, all colonic adenomas arising in celecoxib treated knockout mice were large, each exceeding 1 mm in size; whereas, large tumors were nearly completely absent in celecoxib treated 15-PGDH wild-type mice (3.9±0.8 large tumors per knockout mouse versus 0.3±0.1 per wild-type, P=0.0001) (FIG. 1B, 1C). By several measures, 15-PGDH knockout mice were almost completely resistant to the colon tumor prevention effects of celecoxib. […] Moreover, colon tumor development in celecoxib treated 15-PGDH knockout mice actually exceeded that of drug untreated wild-type mice (3.9±0.8 versus 2.2±0.4 respectively, for tumors >1 mm in size, P=0.04; and, 3.9±0.8 versus 2.3±0.4 respectively tumors of any size, P=0.06) (FIG. 1A, 1B). We conclude that celecoxib mediated colon tumor prevention requires concurrent presence of the prostaglandin inactivating activity of colonic 15-PGDH, and that 15-PGDH loss confers in vivo resistance to this drug effect.
Mouse studies were conducted in the Case Animal Resource Center under a protocol approved by the Institutional Animal Care and Use Committee. 15-Hydroxyprostaglandin dehydrogenase (15-PGDH) knockout mice on a C57BL/6J background were generated as described previously (Myung, S. J. et al., (2006) Proc Natl Acad Sci USA 103, 12098-102; Coggins, K. G. et al, (2002) Nat Med 8, 91-2) and were bred to generation F8 onto an FVB/N (Jackson Laboratory, Bar Harbor, Me.) background, with genotyping done as previously described (Myung, S. J. et al., (2006) Proc Natl Acad Sci U S A 103, 12098-102). 15-PGDH +/− mice generation F8 were intercrossed and siblings of 15-PGDH +/+ and −/− genotypes were selected out for studies with AOM and celecoxib. Eight- to 12-week-old mice were administered AOM by i.p. injection once weekly for 6 weeks at 10mg/kg dose (Sigma Chemical Co., St. Louis, Mo.). Mice were euthanized 24 weeks after the last AOM injection. After euthanizing, the colons were opened longitudinally, rinsed with ice-cold PBS, and examined under a dissecting microscope to identify all tumors. Tumors were resected, fixed in 10% neutral buffered formalin, and paraffin-embedded for histologic examination. All mice received an AIN-76A diet (Harlan Teklad, Madison, Wis.). The diet of celecoxib treated mice was supplemented with 1250 mg/kg of this agent (LKT laboratories, St. Paul, Minn.) (Williams, C. S. et al., (2000) Cancer Res 60, 6045-51). In AOM studies, celecoxib supplementation was initiated starting the day of first AOM injection and continued throughout the lifetime of the mouse. In studies of colonic prostaglandin levels celecoxib was administered to a cohort of 8-12 week old mice continuously for 2 weeks, at which time mice were euthanized.
Prostaglandin and celecoxib levels were log transformed in order to be approximately normally distributed for analysis with a generalized linear regression model with contrasts, generating two-sided P-values. […]

[2] = system: PGE2; assay: Colonic mucosal PGE2 levels by LC/MS/MS after 2 weeks of celecoxib diet; format: in vivo, mouse; conditions: 2 weeks celecoxib diet, mean ± SEM
Description: To further investigate the mechanism of celecoxib's dependence on 15-PGDH, we determined PGE2 levels in colonic mucosa of FVB mice under different experimental conditions. Consistent with the role of 15-PGDH in mediating prostaglandin degradation, 15-PGDH gene knockout essentially doubled FVB colonic PGE2 levels (9.1±1.5 ng/mg protein in knockouts versus 5.70±0.8 ng/mg protein in controls, P=0.04) (FIG. 1D). […] In contrast, in 15-PGDH knockout mice the biochemical activity of celecoxib was much attenuated, with the drug lowering PGE2 levels to only 4.7±0.8 ng/mg protein. […] In overview, the efficacy of celecoxib in lowering colonic PGE2 levels in these different models closely paralleled the drug's anti-tumor activity (FIG. 1D versus FIG. 1A, 1B), and mice that lacked 15-PGDH equally acquired resistance to celecoxib's biochemical activity of lowering colonic PGE2 and to celecoxib's phenotypic effect of preventing colon tumors. Celecoxib resistance of 15-PGDH null mice was not due to any change in drug absorption or catabolism, as tissue levels of celecoxib were indistinguishable between drug treated 15-PGDH wild-type and null mice (39.5±9.7 versus 37.7±7.6 ng/mg protein, P=0.7) (FIG. 2A). […] Rather, the effective depletion of colonic PGE2 required the COX-2 inhibitor drug to act in concert with the independent prostaglandin degrading activity of 15-PGDH. […]

[3] = Celecoxib tissue levels in colonic mucosa by LC/MS/MS; format: in vivo, mouse; conditions: 2 weeks celecoxib supplemented diet, mean ± SEM
Description: Mouse studies were conducted in the Case Animal Resource Center under a protocol approved by the Institutional Animal Care and Use Committee. 15-Hydroxyprostaglandin dehydrogenase (15-PGDH) knockout mice on a C57BL/6J background were generated as described previously (Myung, S. J. et al., (2006) Proc Natl Acad Sci USA 103, 12098-102; Coggins, K. G. et al, (2002) Nat Med 8, 91-2) and were bred to generation F8 onto an FVB/N (Jackson Laboratory, Bar Harbor, Me.) background, with genotyping done as previously described (Myung, S. J. et al., (2006) Proc Natl Acad Sci U S A 103, 12098-102). 15-PGDH +/− mice generation F8 were intercrossed and siblings of 15-PGDH +/+ and −/− genotypes were selected out for studies with AOM and celecoxib. Eight- to 12-week-old mice were administered AOM by i.p. injection once weekly for 6 weeks at 10mg/kg dose (Sigma Chemical Co., St. Louis, Mo.). Mice were euthanized 24 weeks after the last AOM injection. […]
Following 2 weeks of control or celecoxib supplemented diet mice were euthanized. […] The celecoxib level in the samples was determined by LC/MS/MS. […] Celecoxib was detected and quantified by operating the mass spectrometer in electrospray negative ion mode and monitoring the transition m/z 380.2>316.1. Quantification was done by comparing the sample peak areas to a standard curve and concentration of celecoxib was normalized by protein concentration.

[4] = system: colorectal adenomas; assay: Adenoma Prevention with Celecoxib (APC) trial, recurrent adenomas at 36 months; format: in vivo, human; conditions: 16 individuals, 36 months of daily celecoxib
Excerpt: To test this hypothesis, we examined frozen biopsies of rectal mucosa obtained from 16 individuals at the time of their enrollment in the Adenoma Prevention with Celecoxib (APC) trial (Bertagnolli, M. M. et al., (2006) N Engl J Med 355, 873-84). These individuals were all at high risk for colon adenoma development based on having had multiple colon adenomas and/or adenomas greater than 5 mm in diameter prior to their enrollment. Following clearing of their colonic adenomas by colonoscopy, each individual received 36-months of daily treatment with celecoxib (Bertagnolli, M. M. et al., (2006) N Engl J Med 355, 873-84). […] In total 9 new adenomas were detected in these patients (FIG. 3). 15-PGDH levels among individuals who developed new adenomas were lower than 15-PGDH levels among individuals who remained adenoma free (P=0.04) (FIG. 3). […] The relationship of low 15-PGDH level to celecoxib resistance becomes even stronger if analyzed in terms of the numbers of new adenomas that individuals developed, with 8 of the 9 adenomatous polyps that recurred during celecoxib treatment arising in individuals with colonic 15-PGDH values below the cohort median (P=0.01), and with all 9 new adenomas arising in individuals with colonic 15-PGDH below the cohort mean (P=0.001) (FIG. 3). […]

[5] = system: 15-PGDH mRNA; conditions: cited from earlier work

Row | Structure (SMILES) | AOM induced colon tumors per mouse ([1]; 15-PGDH knockout (null) FVB mice, dietary celecoxib) | AOM induced large colon tumors (>1 mm) per mouse ([1]; 15-PGDH knockout FVB mice, dietary celecoxib) | AOM induced colon tumors per mouse ([1]; 15-PGDH wild-type FVB mice, dietary celecoxib 1250 mg/kg diet) | AOM induced large colon tumors (>1 mm) per mouse ([1]; 15-PGDH wild-type FVB mice, dietary celecoxib) | Prevention of AOM induced tumors >1 mm in size ([1]; FVB mice (15-PGDH wild-type)) | Colon adenomas in celecoxib treated 15-PGDH null mice relative to celecoxib treated wild-type littermates ([1]; null versus wild-type, both celecoxib treated) | Colonic mucosal PGE2 level ([2]; 15-PGDH knockout FVB mice) | Colonic mucosal PGE2 level ([2]; 15-PGDH wild-type FVB mice) | Tissue level of celecoxib in colonic mucosa ([3]; 15-PGDH null mice) | Tissue level of celecoxib in colonic mucosa ([3]; 15-PGDH wild-type mice) | Total new adenomas detected [4] | Effect on 15-PGDH mRNA levels [5]
1 | Cc1ccc(-c2cc(C(F)(F)F)nn2-c2ccc(S(N)(=O)=O)cc2)cc1 [celecoxib] | 3.9±0.8 | 3.9±0.8 large tumors per knockout mouse | 0.7±0.3 tumors per mouse | 0.3±0.1 | 85% | 5.5 fold | 4.7±0.8 ng/mg protein | 1.6±0.4 ng/mg protein | 37.7±7.6 ng/mg protein | 39.5±9.7 ng/mg protein | 9 | 
2 | C#Cc1cccc(Nc2ncnc3cc(OCCOC)c(OCCOC)cc23)c1 [erlotinib] |  |  |  |  |  |  |  |  |  |  |  | induce 15-PGDH mRNA levels
